Legend:
[1] = target: T1, Thyroid hormone receptor beta (Homo sapiens, UniProt P10828); assay: Inhibitory activity against human TRAFbeta
T1 sequence (P10828 whole entry): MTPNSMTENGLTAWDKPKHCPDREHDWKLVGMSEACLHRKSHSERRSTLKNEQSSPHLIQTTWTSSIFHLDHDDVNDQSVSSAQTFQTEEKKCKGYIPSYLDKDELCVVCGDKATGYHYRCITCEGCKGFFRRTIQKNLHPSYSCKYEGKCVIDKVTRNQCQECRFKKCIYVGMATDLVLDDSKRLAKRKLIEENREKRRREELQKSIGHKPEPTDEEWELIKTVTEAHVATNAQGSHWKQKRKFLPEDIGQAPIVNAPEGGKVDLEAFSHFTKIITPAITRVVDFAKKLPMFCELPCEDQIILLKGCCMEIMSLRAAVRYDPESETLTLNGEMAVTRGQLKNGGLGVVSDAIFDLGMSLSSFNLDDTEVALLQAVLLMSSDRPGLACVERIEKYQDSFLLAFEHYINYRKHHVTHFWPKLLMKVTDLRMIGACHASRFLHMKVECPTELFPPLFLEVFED

[2] = target: T2, Thyroid hormone receptor alpha (Homo sapiens, UniProt P10827); assay: Inhibitory activity against human TRAFalpha
T2 sequence (P10827 whole entry): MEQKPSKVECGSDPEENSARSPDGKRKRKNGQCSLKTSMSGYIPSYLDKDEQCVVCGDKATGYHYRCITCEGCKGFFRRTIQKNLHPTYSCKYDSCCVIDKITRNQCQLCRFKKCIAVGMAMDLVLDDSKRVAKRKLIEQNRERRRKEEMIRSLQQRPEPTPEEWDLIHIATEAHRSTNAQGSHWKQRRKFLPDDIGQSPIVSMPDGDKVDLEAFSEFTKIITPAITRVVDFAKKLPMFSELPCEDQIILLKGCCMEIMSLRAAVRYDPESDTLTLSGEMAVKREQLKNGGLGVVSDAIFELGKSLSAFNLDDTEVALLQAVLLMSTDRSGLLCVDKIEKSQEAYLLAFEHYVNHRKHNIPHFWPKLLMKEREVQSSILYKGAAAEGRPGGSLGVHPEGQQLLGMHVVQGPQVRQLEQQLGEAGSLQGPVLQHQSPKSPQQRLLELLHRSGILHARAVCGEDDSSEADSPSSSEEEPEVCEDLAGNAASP

[3] = target: T2, Thyroid hormone receptor alpha; assay: Inhibitory activity against human Thyroid hormone receptor alpha
[4] = target: T1, Thyroid hormone receptor beta; assay: Inhibitory activity against human Thyroid hormone receptor beta
Thyroid hormone receptor = target: T3, Thyroid hormone receptor (Homo sapiens, UniProt P10827+P10828); assay: Binding affinity for human Thyroid hormone receptor; type: protein-complex assay
T3 sequence (P10827 whole entry): T2 sequence (P10827 whole entry)
T3 sequence (P10828 whole entry): T1 sequence (P10828 whole entry)

Structure (SMILES)	IC50 [1] [nM]	IC50 [2] [nM]	IC50 [3] [nM]	IC50 [4] [nM]	Ki (Thyroid hormone receptor) [nM]
Cc1oc2ccccc2c1Cc1cc(I)c(OCC(=O)O)c(I)c1	4100	2200	–	–	–
O=C(O)Cc1cc(Br)c(OCC2CCCCC2)c(Br)c1	520	420	2700	770	–
CCC(CC)COc1c(Br)cc(CCC(=O)O)cc1Br	–	–	1600	810	–
O=C(O)CCc1cc(Br)c(OCC2CCCCC2)c(Br)c1	120	530	460	190	–
CCCCCCOc1c(Br)cc(CC(=O)O)cc1Br	800	700	5200	1500	–
CC(C)c1cc(Oc2c(Br)cc(C(=O)O)cc2Br)cc(C(C)C)c1O	4500	1100	–	–	1380
CCCCCCOc1c(Br)cc(CCC(=O)O)cc1Br	1000	600	1100	360	–
CCCCc1oc2ccccc2c1C(=O)c1cc(I)c(CCN(CC)CC)c(I)c1	> 10000	> 10000	650	600	–

More lines, now with the values ahead:

IC50 [1] [nM]	IC50 [2] [nM]	IC50 [3] [nM]	IC50 [4] [nM]	Ki (Thyroid hormone receptor) [nM]	Structure (SMILES)
–	–	160000	32000	–	CCOc1c(Br)cc(CC(=O)O)cc1Br
–	–	26000	1900	–	CCCCOc1c(Br)cc(CC(=O)O)cc1Br
–	–	13000	18000	–	CC(C)CCOc1c(Br)cc(CC(=O)O)cc1Br
–	–	20000	5700	–	CCCCCOc1c(Br)cc(CC(=O)O)cc1Br
–	–	4400	1800	–	CC(C)CCOc1c(Br)cc(CCC(=O)O)cc1Br
700	820	6900	800	–	CCC(CC)COc1c(Br)cc(CC(=O)O)cc1Br

Source: ChEMBL document CHEMBL1143623, “Thyroid receptor ligands. 3. Design and synthesis of 3,5-dihalo-4-alkoxyphenylalkanoic acids as indirect antagonists of the thyroid hormone receptor” (J Med Chem, 2005)
